One may read the viability as a read-out of living cells in per cent, often relative to untreated cells.

A short description of one data set: in vitro. The following applies: human, hela cells, % viability.
Take `CCC(C(=O)O)N1C(=O)C(=Cc2ccc(-c3ccccc3C(F)(F)F)o2)SC1=S` (centres unmarked) [CBK296985]: the viability at 28.5 h, 10 µM was 99.4%. Turning to `COc1cc(C=CC(=O)O)ccc1OCC(=O)N1CCN(CC(=O)NC(C)(C)C)CC1` [CBK296987], the viability at 28.5 h, 10 µM is 114%. `O=C(O)c1cc(C=Cc2cn(Cc3ccccc3)nc2-c2cccnc2)nc2ccccc12` [CBK296988]: the viability at 28.5 h, 10 µM is 105%. On to `Cc1c(C(=O)O)sc2nc(SCC(=O)Nc3ccc(OCc4ccccc4)cc3)[nH]c(=O)c12` [CBK296992], for which the viability at 28.5 h, 10 µM was 88.5%. Turning to `Cc1cc(C(C)(C)C)cc(C)c1COC(=O)c1ccncc1` [CBK296995], the viability at 28.5 h, 10 µM was found to be 112%. Consider `CC(=O)Nc1cccc(NC(=O)c2cc(-c3ccccc3)nn2-c2ccccc2)c1` [CBK296997], for which the viability at 28.5 h, 10 µM worked out at 90.1%.

For `C[C@H](NC(=O)Cc1ccc(-c2ccccc2)cc1)c1nc2ccccc2[nH]1` [CBK296998], the viability at 28.5 h, 10 µM was determined as 98.5%. On to `CC1=C(C(=O)N2CCOCC2)C(c2ccc(Cl)cc2)NC(=O)N1c1ccc(C(=O)O)cc1` (centres unmarked) [CBK296999], for which the viability at 28.5 h, 10 µM is 93.1%. Same read-out and setting: the value for `CS(=O)(=O)N1CCc2cc(C(=O)Cn3nc(C(=O)O)c4ccccc4c3=O)ccc21` [CBK297000] was 80.4%. On the same count and under the same terms, the value for `CC(NC(=O)c1ccccc1)C(=O)OCn1nnc2ccccc2c1=O` (centres unmarked) [CBK297001] was 92%; that for `Cc1nc2cc(NC(=O)Cc3c(C)nc4ccccc4c3C)ccc2o1` [CBK297083] was 110%. Same read-out and setting: the value for `CC(=O)Nc1ccc(-c2csc(NC(=O)NS(=O)(=O)c3ccc(C)cc3)n2)cc1` [CBK297084] was 107%; that for `Cc1ccc(C(CC(=O)O)NC(=O)c2ccc(C)c(S(=O)(=O)N3CCCCC3)c2)cc1` (centres unmarked) [CBK297095] was 82.7%.

In the case of `CC1CCN(S(=O)(=O)c2ccc(C(=O)N3CCC(C(=O)O)CC3)cc2)CC1` [CBK297097], the viability at 28.5 h, 10 µM worked out at 105%. Still for that read-out and setting: the value for `O=C(O)c1cc(S(=O)(=O)Nc2ccc(OCc3ccccc3)cc2)ccc1Br` [CBK297098] was 113%; that for `CC(C)(C)c1cc(NC(=O)CSc2ccc(S(=O)(=O)N3CCCC3)cn2)n(-c2ccccc2)n1` [CBK297099] was 89%. In the case of `O=C(Cn1cnc2sc(-c3ccccc3)cc2c1=O)c1ccc2c(c1)OCO2` [CBK297102], the viability at 28.5 h, 10 µM was determined as 87%. With `Nc1nc(N)nc(CSc2ncc(-c3ccccc3)n2-c2ccccc2)n1` [CBK297103], the viability at 28.5 h, 10 µM was 85.9%. Same read-out and setting: the value for `Cc1cc(C(=O)C(C)Oc2ccc(-c3nnco3)cc2)c(C)n1-c1ccccc1` (centres unmarked) [CBK297104] was 101%; that for `CS(=O)(=O)Cc1cccc(C(=O)Nc2ccc(Oc3ccccc3)cc2)c1` [CBK297111] was 87.5%.

With `O=C(O)CC(=Cc1csc(-c2ccc(Cl)cc2)n1)c1nc2ccccc2o1` [CBK297112], the viability at 28.5 h, 10 µM worked out at 104%. On to `CC1(CCc2ccccc2)NC(=O)N(CC(=O)c2ccc(-c3ccccc3)cc2)C1=O` (centres unmarked) [CBK297114], for which the viability at 28.5 h, 10 µM was found to be 107%. Take `O=C(C1CN(C(=O)Cn2ncc(=O)c3ccccc32)c2ccccc2O1)N1CCCCC1` (centres unmarked) [CBK297115]: the viability at 28.5 h, 10 µM amounted to 93.5%. On the same count and under the same terms, the value for `CC[C@H](C)[C@H](NC(=O)C1CCN(S(=O)(=O)c2ccc(Cl)c(C(F)(F)F)c2)CC1)C(=O)O` [CBK297117] was 91.5%. As for `Cc1c(C(=O)O)sc(S(=O)(=O)N2CCN(C(=O)c3ccc(C(C)(C)C)cc3)CC2)c1C(=O)O` [CBK297119], the viability at 28.5 h, 10 µM was 85.1%. As for `Cc1c(C(=O)O)sc(S(=O)(=O)N2CCN(C(=O)CCC3CCCC3)CC2)c1C(=O)O` [CBK297121], the viability at 28.5 h, 10 µM was determined as 117%. Regarding `Cc1cccc(C(=O)N2CCN(S(=O)(=O)c3sc(C(=O)O)c(C)c3C(=O)O)CC2)c1` [CBK297124], the viability at 28.5 h, 10 µM was 91.4%. For the molecule `CCS(=O)(=O)N1CCc2cc(C(=O)CSc3nnc(-c4ccco4)o3)ccc21` [CBK297126], the viability at 28.5 h, 10 µM was 98.3%. Still for that read-out and setting: the value for `Cc1c(C(=O)O)sc(S(=O)(=O)N2CCN(C(=O)CCc3cccs3)CC2)c1C(=O)O` [CBK297135] was 105%.

With `O=C(O)c1cn(C2CC2)c2cc(N3CCN(C(=O)Cc4ccccc4Cl)CC3)c(F)cc2c1=O` [CBK297136], the viability at 28.5 h, 10 µM was 90.4%.

As to `CCC(C)C(NC(=O)C1CCN(S(=O)(=O)c2ccc(OC)c(OC)c2)CC1)C(=O)O` (centres unmarked) [CBK297140], the viability at 28.5 h, 10 µM is 90.7%. As for `CC(C)OCc1ccc(C(=O)N2CCC(C(=O)O)CC2)cc1` [CBK297141], the viability at 28.5 h, 10 µM stood at 83.2%. Regarding `CC(Sc1nc(C2CC2)n(-c2ccccc2)n1)C(=O)N1CCNC1=O` (centres unmarked) [CBK297144], the viability at 28.5 h, 10 µM was 97.2%. Same read-out and setting: the value for `Cc1ccccc1C(=O)N1CCN(S(=O)(=O)c2sc(C(=O)O)c(C)c2C(=O)O)CC1` [CBK297146] was 102%; that for `Cc1c(C(=O)O)sc(S(=O)(=O)N2CCN(C(=O)Cc3ccccc3)CC2)c1C(=O)O` [CBK297148] was 96.2%; that for `Cc1ccc(C(=O)N2CCN(S(=O)(=O)c3sc(C(=O)O)c(C)c3C(=O)O)CC2)s1` [CBK297150] was 84.8%.

As to `Cc1ccc(OCC(=O)N2CCN(C(=O)c3cccs3)CC2)c([N+](=O)[O-])n1` [CBK297152], the viability at 28.5 h, 10 µM stood at 94.4%. Still for that read-out and setting: the value for `CC(=O)c1ccc(OCc2nc(N)nc(Nc3ccccc3)n2)cc1` [CBK297155] was 83.1%. Regarding `COc1ccc(-c2cc3ncnc(Sc4nnnn4CC4CCCO4)c3s2)cc1` (centres unmarked) [CBK297157], the viability at 28.5 h, 10 µM worked out at 95.9%.

Regarding `O=C(CSc1nnnn1C1CC1)c1cc2ccccc2o1` [CBK297158], the viability at 28.5 h, 10 µM was found to be 90.7%. The same measure, in the same setting: the value for `O=C(O)c1c2c(nc3ccccc13)C(=Cc1ccc3c(c1)OCCO3)CC2` [CBK297479] was 96.3%. For the molecule `Cc1ccn2c(NS(=O)(=O)c3ccc(CCC(=O)O)cc3)c(-c3cccs3)nc2c1` [CBK297480], the viability at 28.5 h, 10 µM turned out to be 110%.

For the molecule `COc1ccc(C(=O)O)cc1S(=O)(=O)Nc1c(-c2cccs2)nc2cc(C)ccn12` [CBK297484], the viability at 28.5 h, 10 µM turned out to be 82.9%. `COc1cc(C(=O)NCC(=O)O)cc(Cl)c1OCC(C)C` [CBK297485]: the viability at 28.5 h, 10 µM came out at 80.8%.

Regarding `CCc1ccc2c(COC(=O)c3cccnc3SC)cc(=O)oc2c1` [CBK297486], the viability at 28.5 h, 10 µM was found to be 85%.

Consider `Nc1c(N(CCO)C(=O)C2CCCC2)c(=O)[nH]c(=O)n1Cc1ccccc1` [CBK297490], for which the viability at 28.5 h, 10 µM came to 97.3%. Still for that read-out and setting: the value for `CCCCCCn1nc(C(=O)NCC(=O)O)c2ccccc2c1=O` [CBK297491] was 97.3%; that for `CCOc1ccc(CN(C)C(=O)Cn2nc(C(=O)O)c3ccccc3c2=O)cc1` [CBK297492] was 83.8%; that for `COc1ccc(CCNC(=O)CSC(C)C(=O)O)cc1` (centres unmarked) [CBK297493] was 81.4%. Take `COc1ccc(-c2nnc(SCC(=O)c3ccc(F)cc3)n2C2CCCCC2C)cc1` (centres unmarked) [CBK297494]: the viability at 28.5 h, 10 µM came to 89.8%. `O=C(O)c1cc(C=Cc2ccc(Cl)c([N+](=O)[O-])c2)nc2ccccc12` [CBK297495]: the viability at 28.5 h, 10 µM was 104%.

Regarding `CCN(CC)CCn1c2ccccc2c2nc3cc(C(=O)O)ccc3nc21` [CBK297496], the viability at 28.5 h, 10 µM stood at 101%. Regarding `CC(C)(C)N(Cc1ccccc1)C(=O)Cn1nc(C(=O)O)c2ccccc2c1=O` [CBK297498], the viability at 28.5 h, 10 µM is 86%.

Regarding `O=C(Nc1ccc(S(=O)(=O)N2CCCC2)cc1)C1CC(=O)N(Cc2ccco2)C1` (centres unmarked) [CBK297500], the viability at 28.5 h, 10 µM stood at 92.5%. Same read-out and setting: the value for `CCOc1ccc(N(CCC#N)C(=O)Cn2nc(C(=O)O)c3ccccc3c2=O)cc1` [CBK297502] was 85.2%; that for `COc1cc(C=C2SC(=S)N(CCCCCC(=O)O)C2=O)cc(OC)c1` [CBK297505] was 98.1%; that for `O=C(c1cc2ccccc2o1)N1CCN(c2cccc(C(F)(F)F)c2)CC1` [CBK297507] was 96.8%. Still for that read-out and setting: the value for `COc1ccc(-c2nnc(SCC(=O)Nc3cc(C)on3)n2C2CCCCC2)cc1` [CBK297510] was 84.1%; that for `O=[N+]([O-])c1cccc(Cn2c(CO)nc3ccccc32)c1` [CBK297515] was 95.4%. On to `CCC(C)c1ccccc1NC(=O)c1cc(=O)[nH]c2ccccc12` (centres unmarked) [CBK297516], for which the viability at 28.5 h, 10 µM amounted to 89.6%. `COCCn1c(SCc2cc(=O)oc3cc(C)ccc23)nnc1-c1ccc(Cl)cc1` [CBK297517]: the viability at 28.5 h, 10 µM was 87.8%. With `COc1ccc(-c2nnc(SCc3cc(=O)oc4cc(C)ccc34)n2CC(C)C)cc1` [CBK297518], the viability at 28.5 h, 10 µM stood at 81.3%. For `COc1ccc(OC)c(NC(=O)c2cc(=O)[nH]c3ccccc23)c1` [CBK297521], the viability at 28.5 h, 10 µM stood at 92.7%. On to `COC(=O)c1ccc(CSc2nnc(-c3ccc(OC)cc3)n2C(C)C)o1` [CBK297523], for which the viability at 28.5 h, 10 µM amounted to 96.4%. Consider `CC(=O)N1CC(C(=O)Nc2ccccc2Cc2ccccc2)Oc2ccccc21` (centres unmarked) [CBK297525], for which the viability at 28.5 h, 10 µM was determined as 88.6%. In the case of `CCS(=O)(=O)c1ccc(O)c(NS(=O)(=O)c2cc(C(=O)O)ccc2Cl)c1` [CBK297531], the viability at 28.5 h, 10 µM was 91.1%. On the same count and under the same terms, the value for `O=C(O)c1cc(C=Cc2ccc(OC(F)F)cc2)nc2ccccc12` [CBK297532] was 85.3%; that for `C[C@H](Nc1ccc(C(F)(F)F)cc1[N+](=O)[O-])C(=O)NCCOc1ccccc1F` [CBK297535] was 106%. In the case of `O=C(OCc1cc([N+](=O)[O-])cc2c1OCOC2)c1ccco1` [CBK297537], the viability at 28.5 h, 10 µM came to 97.9%. Turning to `O=C(Cn1nc(C(=O)O)c2ccccc2c1=O)c1ccc(C2CCCCC2)cc1` [CBK297538], the viability at 28.5 h, 10 µM stood at 89.5%. For `Cc1ccc(-n2c(SCC(=O)N3CCC(C(=O)O)CC3)nc3ccccc3c2=O)cc1C` [CBK297540], the viability at 28.5 h, 10 µM worked out at 81.4%. Regarding `Cc1nc(SCC(=O)c2cc(Cl)ccc2Cl)c2ccccc2n1` [CBK297543], the viability at 28.5 h, 10 µM is 100%. Take `Cc1ccc(NC(=S)NCCNc2ccccn2)cc1Cl` [CBK297544]: the viability at 28.5 h, 10 µM is 105%.

The data set is the same for the next values; noted with them: human, hela cells, % viability, bulk resorufin, single well.
`O=C(C1CCN(S(=O)(=O)c2cccs2)CC1)N1CCC(C(=O)O)(c2ccccc2)CC1` [CBK297147]: the viability at 28.5 h, 10 µM came out at 88%.

The record behind these values is PMC12040169 (PLOS Biology, 2025).
